Experimental data: article PMC6254985 (Journal of Experimental Pharmacology, 2018)
Where a name gives a salt, the structure may show the parent alone. Read-outs that look alike come from different tables or passages of the source.

Columns and labels:
[1] = target: human D2S receptor (Homo sapiens, UniProt P14416); test: [35S]GTPγS binding assay, antagonist activity, D2S; assay type: biochemical
[2] = target: human D2L receptor (Homo sapiens, UniProt P14416); test: [35S]GTPγS binding assay, antagonist activity, D2L; assay type: biochemical
[3] = cited from earlier work
[4] = test system: 5-HT2A, 5-HT2B, 5-HT2C, 5-HT6, 5-HT7, D1, D2S, D2L, D3, or D5; test: Agonist effect in the presence of dopamine or norepinephrine; assay type: cell-based
[5] = test system: alpha-adrenergic receptors; test: Inhibition of alpha-adrenergic receptors

Sequence of human D2S receptor (P14416 1-414 isoform P14416-2): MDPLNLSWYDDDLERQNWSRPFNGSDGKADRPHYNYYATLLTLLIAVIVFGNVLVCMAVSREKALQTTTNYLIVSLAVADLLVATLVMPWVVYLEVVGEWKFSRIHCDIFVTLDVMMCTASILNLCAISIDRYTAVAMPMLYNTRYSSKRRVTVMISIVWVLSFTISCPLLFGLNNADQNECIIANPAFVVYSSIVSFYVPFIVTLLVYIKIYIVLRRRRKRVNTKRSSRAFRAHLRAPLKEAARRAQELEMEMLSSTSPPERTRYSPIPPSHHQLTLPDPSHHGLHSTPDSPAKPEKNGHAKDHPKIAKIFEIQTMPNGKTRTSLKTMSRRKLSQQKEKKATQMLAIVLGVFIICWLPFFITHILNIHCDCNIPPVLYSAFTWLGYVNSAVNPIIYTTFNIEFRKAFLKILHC
Sequence of human D2L receptor (P14416 whole entry): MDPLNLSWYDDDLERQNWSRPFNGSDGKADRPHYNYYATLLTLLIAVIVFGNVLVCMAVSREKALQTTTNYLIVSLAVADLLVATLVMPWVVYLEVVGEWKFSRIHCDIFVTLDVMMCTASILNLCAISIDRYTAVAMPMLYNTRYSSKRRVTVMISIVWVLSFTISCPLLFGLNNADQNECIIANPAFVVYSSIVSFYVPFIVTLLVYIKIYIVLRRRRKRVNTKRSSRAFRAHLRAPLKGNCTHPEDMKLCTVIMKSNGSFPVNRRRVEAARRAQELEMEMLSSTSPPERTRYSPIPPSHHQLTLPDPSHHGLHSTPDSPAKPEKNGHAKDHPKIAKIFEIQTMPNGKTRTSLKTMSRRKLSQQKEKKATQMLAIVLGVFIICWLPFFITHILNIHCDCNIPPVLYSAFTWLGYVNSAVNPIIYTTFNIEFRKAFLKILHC

Structure (SMILES) | Antagonist potency of R(−) relative to S(+) enantiomer, D2S ([1]; based on the IC50) | IC50 ([1]; read-out: IC50 of enantiomers, D2S, [35S]GTPγS binding assay) [nM] | Antagonist potency of R(−) relative to S(+) enantiomer, D2L ([2]; based on the IC50) [fold] | IC50 ([2]; read-out: IC50 of enantiomers, D2L, [35S]GTPγS binding assay) [nM] | Parkinsonism or extrapyramidal symptoms [3] | Propensity for weight gain [3] | Agonist effect in the presence of dopamine or norepinephrine [4] | Inhibition of the alpha-adrenergic receptors [5] | IC50 [1] [nM]
CCc1c(C)[nH]c2c1C(=O)[C@@H](CN1CCOCC1)CC2 (single isomer, unassigned) [R(−) enantiomer] | ~ 100 fold | 48 | ~300 | 21 |  |  |  |  | 
CCc1c(C)[nH]c2c1C(=O)C(CN1CCOCC1)CC2 (stereo not drawn) [SPN-810M, Molindone Hydrochloride] |  |  |  |  | little to no parkinsonism or extrapyramidal symptoms | low propensity for weight gain | No agonist effect | no significant inhibition | 84.4
